In patent publication US10945978B2, “Treatment and diagnosis of melanoma” (The Rockefeller University, priority 2012, dated 2021):
Structures can show the parent of a compound that is named as a salt.

Tests used:
[1] = system: melanoma cells (MeWo, MeWo-LM2, HT-144, SK-Mel-334.2) and endothelial cells; experiment: In vitro cell proliferation, viability and serum starvation assays; format: cell-based, human; set-up: melanoma cell or endothelial cell in vitro proliferation: dose or concentration left out as unconfirmed; details: for cell proliferation or cell viability rates: MeWo, HT-144, SK-Mel-334.2, 1 μM, 5 days
Protocol: To determine the effects of miR-199a or miR-1908 over-expression and combinatorial LNA-induced miRNA inhibition on cell proliferation, 2.5×10^4 cells were seeded in triplicate in 6-well plates, and viable cells were counted after 5 days. […] Viable cells were counted after 8, 24, 48, 72, and 120 hours.
The number of viable cells was counter after 8, 16, and 24 hours.
To determine the effects of GW3965, T0901317, and Bexarotene on in vitro cell growth, 2.5×10^4 melanoma cells were seeded in triplicate in 6-well plates and cultured in the presence of DMSO, GW3965, T0901317, or Bexarotene at 1 μM each. After 5 days, the number of viable and dead cells was counted using the trypan blue dye (72-57-1, Sigma-Aldrich), which selectively labels dead cells.

[2] = system: MeWo, MeWo-LM2, HT-144, SK-Mel-2 and SK-Mel-334.2 human melanoma cells; experiment: Trans-well matrigel cell invasion assay, melanoma cells; format: cell-based; details: for ability of melanoma cells to invade through matrigel: MeWo, HT-144, SK-Mel-2, SK-Mel-334.2, 1 μM for 72 hours
Protocol: Cancer cells were serum-starved in 0.2% FBS DMEM-based media for 12 hours. Trans-well invasion chambers (354480, BD Biosciences, Bedford, Mass.) were pre-equilibrated prior to beginning the assay by adding 0.5 mL of starvation media to the top and bottom chambers. After 30 minutes, the media in the top chamber was removed, and 0.5 mL of media containing 1×10^5 cancer cells was added into each matrigel-coated trans-well insert and incubated at 37° C. for 24 hours. For neutralization antibody and/or recombinant protein experiments, antibody/recombinant protein was added to each well at the start of the assay at the following concentrations as indicated in the figures: 5-40 μg/mL anti-ApoE 1D7 (Heart Institute, University of Ottawa), 5-40 μg/mL anti-IgG (AB-108-C, R&D Systems, Minneapolis, Minn.), 100 μM recombinant human ApoE3 (4696, BioVision, Mountain View, Calif.), and 100 μM BSA (A2153, Sigma-Aldrich). Upon completion of the assay, matrigel-coated inserts were washed with PBS, the cells at the top side of each insert were scraped off, and the inserts were fixed in 4% paraformaldehyde for 15 minutes. The inserts were then cut out and mounted onto slides using VectaShield mounting medium containing DAPI (H-1000, Vector Laboratories, Burlingame, Calif.). The basal side of each insert was imaged using an inverted fluorescence microscope (Zeiss Axiovert 40 CFL) at 5× magnification, taking three representative images for each insert. The number of invaded cells was quantified using ImageJ (NIH).
The cell invasion assay was performed as previously described in detail (Pencheva et al., 2012) using a trans-well matrigel invasion chamber system (354480, BD Biosciences). In brief, various melanoma cells were cultured in the presence of DMSO, GW3965, T0901317, or Bexarotene at 1 μM for 56 hours, after which melanoma cells were switched to starvation media (0.2% FBS) for 16 hours in the presence of each drug. Following starvation, cells were seeded into matrigel-coated trans-well inserts, and the invasion assay was allowed to proceed for 24 hours at 37° C. For ApoE antibody neutralization experiments, 40 μg/mL 1D7 anti-ApoE blocking antibody (Heart Institute, University of Ottawa, Ottawa, Canada) or 40 t g/mL anti-IgG control antibody (AB-108-C, R&D Systems, Minneapolis, Minn.) was added to each trans-well insert at the start of the assay.
The cells were then serum starved for 16 hours in 0.2% FBS media in the presence of each corresponding drug or DMSO. Following serum starvation, the cells were subjected to the trans-well invasion assay using a matrigel invasion chamber system (354480, BD Biosciences). Invasion chambers were pre-equilibrated prior to the assay by adding 0.5 mL of starvation media to the top and bottom wells. Meanwhile, cancer cells were trypsinized and viable cells were counted using trypan blue. Cancer cells were then resuspended at a concentration of 2×10^5 cells/1 mL starvation media, and 0.5 mL of cell suspension, containing 1×10^5 cells, was seeded into each trans-well. The invasion assay was allowed to proceed for 24 hours at 37° C. […] Following fixation, the inserts were washed in PBS, cut out, and mounted onto slides using VectaShield mounting medium containing DAPI nuclear stain (H-1000, Vector Laboratories). The basal side of each insert was imaged using an inverted fluorescence microscope (Zeiss Axiovert 40 CFL) at 5× magnification, and the number of DAPI-positive cells was quantified using ImageJ.

| Compound | cell proliferation or cell viability rates [1] | tumor cell invasion ([2]; MeWo cells pre-treated 48 hours) | ability of melanoma cells to invade through matrigel [2] | melanoma cell or endothelial cell in vitro proliferation ([1]; MeWo-LM2 cells or endothelial cells, ApoE) | survival in serum starvation conditions ([1]; MeWo-LM2 cells or endothelial cells, ApoE, 0.2% FBS) | invasion ([2]; metastatic LM2 cells, recombinant ApoE3 100 μM vs BSA) |
| --- | --- | --- | --- | --- | --- | --- |
| O=C(O)Cc1cccc(OCCCN(Cc2cccc(C(F)(F)F)c2Cl)CC(c2ccccc2)c2ccccc2)c1 [GW3965 2, 3-[3-[N-(2-Chloro-3-trifluoromethylbenzyl)-(2,2-diphenylethyl)amino]propyloxy] phenylacetic acid hydrochloride] | did not affect | decreased | consistently suppressed | – | – | – |
| O=S(=O)(c1ccccc1)N(CC(F)(F)F)c1ccc(C(O)(C(F)(F)F)C(F)(F)F)cc1 [T0901317 1] | did not affect | – | consistently suppressed | – | – | – |
| recombinant human ApoE: recombinant human ApoE3 (4696, BioVision) | – | – | – | did not affect | did not affect | significantly suppressed |
